Results as given in patent publication US10744106B2, “Reversibly protected thiolated electrophilic fatty acids as prodrugs” (University of Pittsburgh—Of the Commonwealth System of …, priority 2016, dated 2020).

Columns and labels:
Format in all cases: cell-based, murine
heme oxygenase 1 (HO-1) = test: Nrf2-dependent HO-1 transcription in RAW264.7 cells (qPCR, Taqman); conditions: for HO-1 steady-state mRNA levels, fold vs media and vehicle controls: 8 hours (maximum)
Procedure: (§1) Murine macrophage cells (RAW264.7) were treated with the purified thiolated NO2—OA for 4 hours. RNA was extracted using the Trizol method, quantified using nanodrop technology, reversed transcribed into cDNA and then quantitative PCR was performed using Taqman assays. […] The concentration of 50 μM OA-NO2—Sx induced a similar Nrf2 activation profile for HO-1, NQO-1 and GCLM (18.0-, 6.8- and 6.3-fold, respectively) as 5 μM OA-NO2 (23.5-, 7.7-, 6.8-fold for HO-1, NQO1 and GCLM, respectively) at the 4 hour time point.
(§2) Experimental details: In every experiment, RAW264.7 cells were treated with 7.5, 15, 50 and 100 μM OA-NO2—Sx, 5 μM OA-NO2 two concentrations of methanol (MeOH) to match the lowest and highest amount of vehicle (5 and 100 μM) and a media control only. Within each experiment, there were two or three biological replicates per treatment group. After treatment, RNA was extracted using the Trizol method, quantified using nanodrop technology, reversed transcribed into cDNA and then quantitative PCR (qPCR) was performed using Taqman assays. In each qPCR experiment, there were two technical replicates per sample of RNA. The two technical replicates were then averaged for each biological replicate. The bars in the graph represent mean±standard error of the mean (SEM) of the biological replicates.
(§3) Murine macrophage cells (RAW264.7) were treated with 50 μM OA-NO2—Sx, 5 μM OA-NO2, MeOH (the highest amount of vehicle added to RAW cells to match the highest concentration, which is 50 μM for OA-NO2—Sx) and media alone for 4, 8, 16 and 24 hours. RNA was extracted at each time point using the Trizol method, quantified using nanodrop technology, reversed transcribed into cDNA and then quantitative PCR was performed using Taqman assays. […] There was a similar trend for GCLM mRNA levels (FIG. 7) remained elevated for OA-NO2—Sx (30.0-fold) compared to 1.7-fold for 5 μM OA-NO2 treatment at 16 hours.
(§4) Experimental details: Murine macrophage cells (RAW264.7) were treated with 50 μM OA-NO2—Sx, 5 μM OA-NO2, MeOH (the highest amount of vehicle added to RAW cells to match the highest concentration, which is 50 μM for OA-NO2—Sx) and media alone for 4, 8, 16 and 24 hours. RNA was extracted at each time point using the Trizol method, quantified using nanodrop technology, reversed transcribed into cDNA and then quantitative PCR for HO-1, NQO-1 and GCLM (multiplexed with actin) was performed using Taqman assays. Within each independent experiment, every treatment had at least two biological replicates at each time point. The data represents two independent experiments as mean±SEM.

[1] = system: NAD(P)H dehydrogenase quinone 1 (NQO-1); test: Nrf2-dependent NQO-1 transcription in RAW264.7 cells (qPCR, Taqman); conditions: for NQO-1 transcription, fold vs controls / NQO-1 mRNA levels, fold: RAW264.7
Procedure: as §1, §2, §3, §4

[2] = system: glutamate-cysteine ligase modifier subunit (GCLM); test: Nrf2-dependent GCLM transcription in RAW264.7 cells (qPCR, Taqman); conditions: for GCLM transcription, fold vs controls / GCLM mRNA levels, fold: RAW264.7; for GCLM mRNA levels, fold: 16 hours
Procedure: as §1, §2, §3, §4

[3] = 7.5, 15, 50 and 100 μM, 4 hours, compared to controls

CCCCCCCCC(SC(CCCCCCCC)C(CCCCCCCC(=O)O)[N+](=O)[O-])C(CCCCCCCC(=O)O)[N+](=O)[O-] (centres unmarked) [OA-NO2—Sx, thiolated nitro-oleic acid]
HO-1 transcription, fold vs controls (heme oxygenase 1 (HO-1); 50 μM OA-NO2—Sx, 4 hours, RAW264.7): 18.0 fold | HO-1 steady-state mRNA levels, fold vs media and vehicle controls (heme oxygenase 1 (HO-1); 50 μM, RAW264.7): 116.5 fold | HO-1 mRNA levels, fold (heme oxygenase 1 (HO-1); 50 μM, 16 hours, RAW264.7): 7.5 fold | HO-1 mRNA levels (heme oxygenase 1 (HO-1); 50 μM, 24 hours, RAW264.7): returned to basal levels | Nrf2-dependent transcription of HO-1, dose response (heme oxygenase 1 (HO-1); [3]): dose-dependent increase | NQO-1 transcription, fold vs controls ([1]; 50 μM OA-NO2—Sx, 4 hours): 6.8 fold | NQO-1 mRNA levels, fold ([1]; 50 μM, 16 hours): 701.1 fold | Nrf2-dependent transcription of NQO-1, dose response [1, 3]: dose-dependent increase | GCLM transcription, fold vs controls ([2]; 50 μM OA-NO2—Sx, 4 hours): 6.3 fold | GCLM mRNA levels, fold ([2]; 50 μM): 30.0 fold | Nrf2-dependent transcription of GCLM, dose response [2, 3]: dose-dependent increase

Nitro-oleic acid [OA-NO2, reference compound]
HO-1 transcription, fold vs controls (heme oxygenase 1 (HO-1); 5 μM OA-NO2, 4 hours, RAW264.7): 23.5 fold | HO-1 steady-state mRNA levels, fold vs media and vehicle controls (heme oxygenase 1 (HO-1); 5 μM, RAW264.7): 30.7 fold | HO-1 mRNA levels (heme oxygenase 1 (HO-1); 5 μM, 16 hours, RAW264.7): returned to baseline | HO-1 mRNA levels (heme oxygenase 1 (HO-1); 5 μM, 24 hours, RAW264.7): returned to basal levels | NQO-1 transcription, fold vs controls ([1]; 5 μM OA-NO2, 4 hours): 7.7 fold | NQO-1 mRNA levels, fold ([1]; 5 μM, 8 hours): 115.0 fold | NQO-1 mRNA levels, fold ([1]; 5 μM, 16 hours): 98.9 fold | GCLM transcription, fold vs controls ([2]; 5 μM OA-NO2, 4 hours): 6.8 fold | GCLM mRNA levels, fold ([2]; 5 μM): 1.7 fold
